For assay [1], the target named is T1, human renin (Homo sapiens, UniProt P00797).
T1 sequence (P00797 67-406): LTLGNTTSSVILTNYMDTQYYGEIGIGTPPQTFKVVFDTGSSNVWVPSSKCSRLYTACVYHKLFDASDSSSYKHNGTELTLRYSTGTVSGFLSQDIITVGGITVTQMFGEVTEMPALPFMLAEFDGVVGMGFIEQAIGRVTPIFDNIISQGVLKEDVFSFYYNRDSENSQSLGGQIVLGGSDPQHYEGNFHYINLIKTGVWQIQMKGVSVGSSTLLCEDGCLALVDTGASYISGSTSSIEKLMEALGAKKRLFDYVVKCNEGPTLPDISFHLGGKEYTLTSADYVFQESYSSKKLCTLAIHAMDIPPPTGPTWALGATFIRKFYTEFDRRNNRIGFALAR
Set-up: human high renin plasma; from tissue; host or cells: human high renin plasma. The following applies: reported at 1986 meetings; cited from earlier work.

In assay [2] the target is T1, human renin. Kind of assay: Renin inhibitory effect in a human high renin plasma. The format is biochemical. Details: human high renin plasma; from tissue; host or cells: human high renin plasma. To be noted: phosphate buffer pH 7.0, 37° C., 60 minutes. The method, then:
Renin inhibitory effect in a human high renin plasma
The mixture consisted of 500 μl of human high renin plasma, 50 μl of 20 mM L-phenylalanyl-L-alanyl-L-prolin, an angiotensin converting enzyme inhibitor, 350 μl of 0.5 M phosphate buffer (pH 7.0) containing 14 mM EDTA·2Na and 0.3% neomycin and 100 μl of appropriate concentration of amino acid compound of the present invention dissolved in DMSO or DMSO as a control. A 200 μl sample was taken out from the solution, and was cooled at 4° C. in an ice bath. The remaining sample (800 μl) was incubated for 60 minutes at 37° C. in a water bath. A 200 μl of sample was taken out from the incubated mixture, and chilled immediately in an ice bath. The amount of angiotensin I produced in both samples was determined by radioimmunoassay, and the net amount was estimated as a difference between the samples incubated at 37° C. and the sample cooled at 4° C.
The inhibitory effect was calculated by the following equation: [formula]
The molar concentration which produced 50% inhibition (IC50) was calculated from the inhibition value obtained, and the results are shown below. [drawing 32]

Assay [3] concerns the target T1, human renin. Kind of assay: Human renin-sheep renin substrate reaction system in vitro. Type of assay: biochemical. To be noted: purified human renin, semipurified sheep renin substrate, pH 7.4, 37° C., 15 minutes. As for the experimental part: Human renin-sheep renin substrate reaction system in vitro
To a mixture containing 200 μl of a 125 mM pyrophosphate buffer (pH 7.4), 25 μl of a 20 mM aqueous solution of L-phenylalanyl-L-alanyl-L-prolin as an angiotensin converting enzyme inhibitor, 50 μl of semipurified sheep renin substrate (2000 ng angiotensin I/ml), 50 μl of dimethyl sulfoxide solution of an amino acid derivative of the present invention or 50 μl of dimethyl sulfoxide as a control and 150 μl of deionized water was added 25 μl of purified human renin (20-30 ng angiotensin I/ml/hr). The mixture was incubated for 15 minutes on a water bath at 37° C., and the reaction mixture was allowed to stand for 5 minutes on a water bath at 100° C. to stop the reaction. After cooling, 200 μl of the solution were taken out and the amount of angiotensin I produced by the addition of renin was determined by radioimmunoassay. The inhibitory effect was calculated by the following equation. [formula]
The molar concentration which produced a 50% inhibition (IC50) was calculated from the inhibition value obtained, and the results are shown below. [drawing 19]

Assay [4] in a line: Hypotensive effect in marmoset. The format is in vivo, common marmoset. The following applies: 30 mg/kg oral, furosemide-treated high renin marmoset, Control 84.3 mmHg. The method, then: Hypotensive effect in marmoset
The experiment was carried out by using common marmoset as described in K. G. Hofbauer et al., Clinical and Experimental hypertension, Vol. A5, Nos. 7 & 8 (1983), pages 1237-1247.
Furosemide was orally administered three times to common marmoset at 15 mg per kilogram per day every other day to create a high renin state. Blood pressure of conscious marmoset was measured 3 days after the last administration of furosemide.
Measurement of blood pressure
A conscious male marmoset weighing 360 g was binded on a monkey chair, and tailarterial pressure was recorded on a pretismograph. The amino acid compound of the present invention, administred orally using a catheter.
(a) Compound: Isopropyl (2RS, 3S)-3-{N-[2-(1-naphthylmethyl)-3-(morpholinocarbonyl)propionyl]-L-alanyl}amino-2-hydroxy-5-methylhexanoate

In general, IC50 refers to the concentration needed to halve the response being measured.

As for `COC(=O)C(O)C(CC(C)C)NC(=O)[C@H](Cc1c[nH]cn1)NC(=O)C(CC(=O)NCCc1ccccc1)Cc1cccc2ccccc12` (stereo partly drawn), the “Human renin inhibitory activity” value at human renin [1] is “human renin inhibitory activity”.

Take `CC(C)C[C@H](NC(=O)[C@@H](NC(=O)C(CC(=O)N1CCOCC1)Cc1cccc2ccccc12)C(C)C)C(O)C(=O)OC(C)C` (stereo partly drawn) [compound 5]: the values for the IC50 on human renin [2] and against human renin [3] were 0.0033 µM and 0.0066 µM, respectively.

Consider `CC(C)C[C@H](NC(=O)[C@H](CO)NC(=O)C(CC(=O)N1CCOCC1)Cc1cccc2ccccc12)C(O)C(=O)OC(C)C` (stereo partly drawn) [compound 8], for which the IC50 against human renin [2] is 0.0072 µM; against human renin [3], 0.026 µM.

With `CC(C)C[C@H](NC(=O)[C@H](Cc1ccccc1)NC(=O)C(CC(=O)N1CCOCC1)Cc1cccc2ccccc12)C(O)C(=O)OC(C)C` (stereo partly drawn) [compound 6], the IC50 at human renin [2] was 0.14 µM; against human renin [3], 0.048 µM.

Turning to `CC(C)C[C@H](NC(=O)[C@H](Cc1c[nH]c2ccccc12)NC(=O)C(CC(=O)N1CCOCC1)Cc1cccc2ccccc12)C(O)C(=O)OC(C)C` (stereo partly drawn) [compound 7], the IC50 on human renin [2] stood at 0.51 µM; on human renin [3], 0.29 µM.

Consider `CC(C)CCNC(=O)C[C@H](O)[C@H](CC(C)C)NC(=O)[C@H](CC(C)C)NC(=O)C(CC(=O)N1CCOCC1)Cc1cccc2ccccc12` (stereo partly drawn) [No. 4, N-[2-(1-Naphthylmethyl)-3-(morpholinocarbonyl)-propionyl]-L-leucyl-statiyl isoamylamide], for which the 50% inhibitory concentration (IC50) on human renin [2] amounted to 0.061 µM; at human renin [3], 0.08 µM.

Regarding `COC(=O)CN(C)C(=O)CC(Cc1cccc2ccccc12)C(=O)N[C@@H](C)C(=O)N[C@@H](CC(C)C)C(O)C(=O)OC(C)C` (stereo partly drawn) [compound 12], the IC50 worked out at 0.013 µM at human renin [2] and 0.015 µM at human renin [3].

For the compound `CC(C)C[C@H](NC(=O)CNC(=O)C(CC(=O)N1CCOCC1)Cc1cccc2ccccc12)C(O)C(=O)OC(C)C` (stereo partly drawn) [compound 9], the IC50 at human renin [2] came to 0.2 µM; at human renin [3] it was 0.39 µM.

As to `COC(=O)[C@@H]1CCCN1C(=O)CC(Cc1cccc2ccccc12)C(=O)N[C@@H](C)C(=O)N[C@@H](CC(C)C)C(O)C(=O)OC(C)C` (stereo partly drawn) [compound 11], the results for the IC50 against human renin [2] and against human renin [3] were 0.044 µM and 0.059 µM, respectively.

With `CC(C)C[C@H](NC(=O)CCNC(=O)C(CC(=O)N1CCOCC1)Cc1cccc2ccccc12)C(O)C(=O)OC(C)C` (stereo partly drawn) [compound 10], the results for the IC50 on human renin [2] and against human renin [3] were 0.046 µM and 0.13 µM, respectively.

Take `CC(C)C[C@H](NC(=O)[C@H](C)NC(=O)C(CC(=O)N1CCOCC1)Cc1cccc2ccccc12)C(O)C(=O)OC(C)C` (mixture of isomers) [No. 1, Isopropyl (2RS, 3S)-3-{N-[2-(1-naphthylmethyl)-3-(morpholinocarbonyl)propionyl]-L-alanyl}amino-2-hydroxy-5-methylhexanoate]: the half-inhibitory concentration (IC50) came to 0.02 µM against human renin [2] and 0.026 µM against human renin [3]. In addition, the Blood pressure in assay [4] (1 hour after administration) is on record as 75.8 mmHg; in assay [4] (2 hours after administration), 70.0 mmHg; in assay [4] (3 hours after administration), 70.0 mmHg; in assay [4] (5 hours after administration), 70.0 mmHg; in assay [4] (7 hours after administration), 72.6 mmHg.

With `COC(=O)C(O)[C@H](CC(C)C)NC(=O)[C@H](CC(C)C)NC(=O)C(CC(=O)N1CCOCC1)Cc1cccc2ccccc12` (mixture of isomers) [No. 3, Methyl (2RS, 3S)-3-{N-[2-(1-naphthylmethyl)-3-(morpholinocarbonyl)propionyl]-L-leucyl}amino-2-hydroxy-5-methylhexanoate], the IC50 at human renin [2] came out at 0.011 µM; against human renin [3], 0.03 µM.

With `CC(C)C[C@H](NC(=O)C(CC(=O)N1CCOCC1)Cc1cccc2ccccc12)C(=O)N[C@@H](CC(C)C)C(O)C(=O)OC(C)C` (stereo partly drawn) [compound 2], the half-inhibitory concentration (IC50) stood at 0.016 µM against human renin [2] and 0.014 µM at human renin [3].

Values taken from patent publication US4853463A, “Amino acid derivatives” (Kissei Pharmaceutical Co., Ltd., priority 1985, dated 1989).
